4 compounds from US8541400B2, “Compositions forming non-lamellar dispersions” (Camurus AB, priority 2004, dated 2013) can be followed below.

The nature of data set [1]: Active agent loading into non-lamellar particle dispersion. The format is physicochemical. The settings on record: active agent relative to mass of total amphiphile, DGMO/GDO/Pluronic F127 54/36/10 dispersion; for % loading by equilibration: 37° C., three days; for % loading by heat treatment: autoclavation 125° C., 20 minutes. How it is done:
A composition comprising DGMO (54% by weight), GDO (36% by weight) and Pluronic® F127 (10% by weight) was dispersed in 99 times its weight in water by the method of Example 2.1.
The dispersion was divided into samples and loaded with each of the active agents shown below by each of two techniques: • i) A saturated solution of active was equilibrated with the particles in dispersion at 37° C. for three days by gentle stirring on a rotating table. • ii) The samples were dispersed in a solution of excess active agent and heat treated by autoclavation at 125° C. for 20 minutes and were allowed to temperature equilibrate at 37° C. for at least one hour.
The following loadings were achieved, expressed as percentage active agent incorporated relative to the mass of total amphiphile.

Data set [2] in a line: Oral bioavailability of octreotide in rats (plasma OCT, competitive immunoassay). The format is in vivo. The settings on record: rat, 0.2 mg/kg, read-out: Absolute bioavailability (F). How it is done: On the first day of the experiment, the rats were prepared by inserting a silicon catheter (OD approx. 1 mm) in the jugular vein under isoflurane anaesthesia. The catheter was tunnelled under the skin and exteriorised between the scapulae. After surgery the rats were allowed 48 hours of recovery before dosing. The catheter was rinsed with 0.9% NaCl containing 1 mM EDTA, every morning during the recovery period.
In the morning, after approximately 16 hours of fasting (water was accessible), the animals were dosed and blood collected. The animals were allowed free access to water after dosing, but had no access to food. After the last sampling, all animals were sacrificed.
The rats were dosed intravenously through the venous catheter or by gavage by a plastic ball-tipped gavage tube. […]
The content of OCT in all plasma samples was measured by a competitive immunoassay. […] The fraction of antibody remaining in solution is removed, and the fraction bound to the immobilized peptide is quantified, the signal obtained being inversely proportional to the concentration of OCT in the sample. […]
Dose-corrected absolute bioavailability of OCT in the oral non-lamellar formulation was calculated as: Availability (F)=(AUCoral×DoseIV)/(AUCIV×Doseoral)×100 20.6—Results

For the compound `CC(=O)N1CCN(c2ccc(OCC3COC(Cn4ccnc4)(c4ccc(Cl)cc4Cl)O3)cc2)CC1` (stereo not shown) [Ketoconazole], in data set [1], the “% loading by equilibration” value was 3.49% and the “% loading by heat treatment” value is listed as 19.25%.

Take `C[C@@H](O)[C@@H]1NC(=O)[C@H](CCCCN)NC(=O)[C@@H](Cc2c[nH]c3ccccc23)NC(=O)[C@H](Cc2ccccc2)NC(=O)[C@@H](NC(=O)[C@H](N)Cc2ccccc2)CSSC[C@@H](C(=O)N[C@H](CO)[C@@H](C)O)NC1=O` [OCT in a saline solution, Octreotide]: in data set [2], the bioavailability (commonly dose-corrected exposure relative to a reference, in per cent) was about 0.04%.

Take `C[C@]12CC[C@@H]3c4ccc(O)cc4C[C@@H](CCCCCCCCC[S+]([O-])CCCC(F)(F)C(F)(F)F)[C@H]3[C@@H]1CC[C@@H]2O` (stereo partly shown) [Fulvestrant]: in data set [1], the “% loading by equilibration” value was found to be 0.6% and the “% loading by heat treatment” value is recorded as 3.76%.

`CC(=O)[C@H]1CC[C@H]2[C@@H]3CCC4=CC(=O)CC[C@]4(C)[C@H]3CC[C@]12C` [Progesterone]: in data set [1], the “% loading by equilibration” value was 2.99% and the “% loading by heat treatment” value was determined as 12.65%.
